≈ marks a conversion by molar mass, not a printed value. Entries after “also recorded” stand apart in the source; their conditions may differ. Where a SMILES comes first, the peptide text is derived from it. Where no end group is shown, it is not given here. [ ]: non-standard residue; d: D form. Sar = CNCC(=O)O
Tests used:
[1] = Thioflavine T fluorescence assay of peptide aggregation; assay type: physicochemical; conditions: ThT 0.2 mM, 37 °C; for ThT fluorescence intensity, final: peptide alone 0.2 mM, 1% DMSO, end of kinetics (time axis to 80 min); for amyloids in peptide preparation according to ThT fluorescence: peptide alone
Procedure: (§1) Fibrils growth was monitored by thioflavine T (ThT) (Sigma-Aldrich, St. Louis, MO, USA) fluorescence. The kinetics of aggregation of peptides was studied using the method of fluorescence spectroscopy. Each kinetics graph was plotted based on the average of several results measured at different time intervals. To facilitate dissolution, all the samples of peptides were pre-dissolved in 100% DMSO, then buffers 50 mM Tris-HCl, pH 7.5, 150 mM NaCl or 20% acetic acid pH 2.0, 150 mM NaCl were added (1% final concentration DMSO) and filtered through […] membranes to remove small aggregates. ThT is the most commonly used fluorescent dye for the following amyloid formation semi-quantitatively in vitro. Free ThT has excitation and emission maxima at ∼350 and ∼450 nm, respectively (after binding to fibrils, the excitation and emission λmax change to ∼450 and ∼482–485 nm, respectively). A stock solution of ThT was prepared at a concentration of 20 mM in 50 mM Tris-HCl, pH 7.5, 150 mM NaCl or 20% acetic acid pH 2.0, 150 mM NaCl, respectively and stored at 4 °C protected from light. The final concentration of ThT was 0.2 mM, and each peptide was 0.2 mM. ThT was present in the sample during the fibril formation reaction. Measurements of ThT fluorescence were performed on a Cary Eclipse fluorescence spectrophotometer (Varian, Mulgrave, Australia) in quartz cells 3 × 3 mm at 37 °C.

[2] = system: T. thermophilus cell culture; assay type: cell-based; conditions: for minimal inhibitory concentration (MIC): optical absorption at 600 nm after 24 h incubation, 5 repeats for R23I, 2 for R23T and V10I
Procedure: UV-Vis spectra were recorded using a spectrophotometr SF-102 (Akvilon, Moscow, Russia). At the end of the incubation, the density of the medium was estimated by spectrophotometry in a cuvette 10 mm with a total volume of 100 μL. The cuvettes were filled with the peptide water solutions and spectra were collected, using a wavelength from 600 nm. Biological activity of peptides was evaluated by their minimum concentration, which that may inhibit the growth of T. thermophilus bacteria culture. Biological activity of peptides was counted by using the following equation: (1) E=1−A (sample with peptide)/A (sample without peptide), where E is a biological activity of peptides, A is an optical absorption after 24 h incubation with and without peptide.
To construct a dose-effect curve and estimate the quantitative parameters of the curves, the statistical environment R and the drc package were used. The choice of model for describing the functional dependence was determined by several parameters: the logarithm of the maximum value of the likelihood function (logLik), the Akaike information criterion (IC), and the residual variance (Res var).
The algorithm for evaluating antimicrobial activity includes the study of this process and the dose–response relationship. The reaction of a biological object determines a quantitative assessment of the antimicrobial effect, depending not only on the concentration of the peptide, but also on the time of its action. Almost any impact begins with a certain threshold. An important final result of the experiment is the assessment of this threshold—the minimum inhibitory concentration (MIC) at which peptide influence is observed.

[3] = system: ribosomal S1 protein from T. thermophilus; assay: Electron microscopy, coaggregation of peptide with S1 protein
Procedure: (§2) The presence of amyloid fibrils in the test samples was monitored by transmission electron microscopy (TEM). End-point solutions of peptides were collected and the samples were dissolved in the same solution to 0.2 mg/mL before studying with electron microscopy. A formvar-coated copper grid 400 mesh (Electron Microscopy Sciences, Hatfield, PA, USA) was placed on a 10 μL sample. After 5 min absorption, the grids with the preparation were negatively stained for 1.5–2.0 min with 1% (weight/volume) aqueous solution of uranyl acetate. The excess of the staining agent was removed with filter paper. The preparations were analyzed using a JEM-100C (Jeol, Tokyo, Japan) transmission electron microscope at the accelerating voltage of 80 kV. Images were recorded on the Kodak electron image film (SO-163) at nominal magnification of 40,000–60,000.

[4] = system: ribosomal S1 protein from T. thermophilus; assay: Thioflavine T fluorescence, coaggregation of peptide with S1 protein; conditions: S1:peptide ratios 1:1 and/or 1:5
Procedure: as §1

[5] = Transmission electron microscopy of peptide preparations; assay type: physicochemical; conditions: peptide alone
Procedure: as §2

[6] = system: T. thermophilus cells; assay: Electron microscopy of intact and peptide-treated T. thermophilus cells; assay type: cell-based
Procedure: Along with the spectrophotometric method for determining the antimicrobial activity of peptides, the viability of cells was evaluated using electron microscopy. […] At the given peptide concentration, cells with a typical morphology and flagella were often found. Many protein aggregates were also observed. The absence of an antimicrobial effect with an increase in the concentration of the peptide to 1000 μg/mL, consistent with the spectrophotometry data of the antimicrobial activity of peptides (Figure 3).
as §2

[7] = peptide:S1 protein ratio 5:1 (S1:peptide = 1:5)

Molecule: GlyGlySarGlyVTDFGVFVEI [G14I, elongated peptide GlyGlySarGly[…]]
- ThT fluorescence intensity, final [1]: 80 a.u.
- amyloids in peptide preparation according to ThT fluorescence [1]: presence of amyloids

Molecule: NC[C@H]1O[C@H](O[C@H]2[C@H](O)[C@@H](O[C@H]3O[C@H](CO)[C@@H](O)[C@H](N)[C@H]3O)[C@H](N)C[C@@H]2N)[C@H](O)[C@@H](O)[C@@H]1O [kanamycin, reference compound]
- change of optical density of T. thermophilus culture over time ([2]; 50 μg/mL in medium, OD 600 nm versus sampling time, DMSO control reached 0.8): no increase in the optical density
- effectiveness E = 1 − A(sample with peptide)/A(sample without peptide) ([2]; T. thermophilus culture, OD 600 nm, 24 h, maximum observed, probably a limitation of the method): ≤ 0.8
- concentration close to 50% of the inhibition of cell culture growth ([2]; T. thermophilus culture, dose-response curve, log-logistic model): ~10 µg/mL

Molecule: DFGVFVNLG [D9G, amyloidogenic peptide … based on the ribosomal S1 protein from T. thermophilus]
- biological activity (growth inhibition) in the range of studied concentrations ([2]; T. thermophilus culture, OD 600 nm, 24 h, single repeat): did not show biological activity

Molecule: GlyGlySarGlyVVEGTVVEVT (GG[Sar]GVVEGTVVEVT) [G14T, elongated peptide GlyGlySarGly…]
- morphology of peptide/S1 protein mixture by electron microscopy ([3]; peptide:S1 protein ratio 1:1): fibrils are not formed
- amyloids on joint incubation with S1 protein according to ThT fluorescence [4]: presence of amyloids, which tend to disaggregate
- ThT fluorescence intensity, final [1]: 4 a.u.
- amyloids in peptide preparation according to ThT fluorescence [1]: presence of amyloids
- aggregate/fibril morphology according to electron microscopy ([5]; negative staining, TEM): short dense fibrils

Molecule: CC(C)[C@H](NC(=O)CNC(=O)CN(C)C(=O)CNC(=O)CNC(=O)[C@H](CCCNC(=N)N)NC(=O)[C@H](CCCNC(=N)N)NC(=O)[C@H](CCCNC(=N)N)NC(=O)[C@H](CCC(N)=O)NC(=O)[C@H](CCCNC(=N)N)NC(=O)[C@H](CCCNC(=N)N)NC(=O)[C@H](CCCCN)NC(=O)[C@H](CCCCN)NC(=O)[C@@H](N)CCCNC(=N)N)C(=O)N[C@H](C(=O)N[C@@H](CCC(=O)O)C(=O)NCC(=O)N[C@H](C(=O)N[C@H](C(=O)N[C@H](C(=O)N[C@@H](CCC(=O)O)C(=O)N[C@H](C(=O)N[C@H](C(=O)O)[C@@H](C)O)C(C)C)C(C)C)C(C)C)[C@@H](C)O)C(C)C [R23T] (HELM PEPTIDE1{R.K.K.R.R.Q.R.R.R.G.G.[Sar].G.V.V.E.G.T.V.V.E.V.T}$$$$V2.0; N-terminus and C-terminus assumed)
- morphology of peptide/S1 protein mixture by electron microscopy ([3]; peptide:S1 protein ratio 1:1): aggregates are observed; also recorded: aggregates of different sizes
- morphology of peptide/S1 protein mixture by electron microscopy [3, 7]: aggregates of different morphology (type 1 and type 2), fibrils and thin films are formed; also recorded: both the fibrils and films were formed
- minimal inhibitory concentration (MIC) ([2]; T. thermophilus culture): 500 µg/mL (≈ 193 µM)
- amyloids in peptide preparation according to ThT fluorescence [1]: absence of R23T amyloids
- fibril/aggregate formation by electron microscopy ([5]; 5 h incubation at 37 °C, 50 mM TrisHCl pH 7.5, 150 mM NaCl): did not form fibrils, but the aggregates were observed
- cell morphology by electron microscopy ([6]; peptide 100 μg/mL): did not differ from the control
- cell morphology by electron microscopy ([6]; peptide 500 μg/mL): cells were often damaged

Molecule: VVEGTVVEVT [V10T, unmodified amyloidogenic peptide … based on the ribosomal S1 protein from T. thermophilus]
- morphology of peptide/S1 protein mixture by electron microscopy ([3]; peptide:S1 protein ratio 1:1): only aggregates are present
- morphology of peptide/S1 protein mixture by electron microscopy [3, 7]: both aggregates and fibrils are present; also recorded: led to the formation of fibrils
- amyloids on joint incubation with S1 protein according to ThT fluorescence [4]: presence of amyloids, which tend to disaggregate
- cell morphology by electron microscopy ([6]; peptide 100 μg/mL): had no toxic effect

Molecule: VTDFGVFVEI [V10I]
- minimal inhibitory concentration (MIC) ([2]; T. thermophilus culture): 1000 µg/mL
